This note sets out measurements from US20030170694A1, “Stabilized nucleic acids in gene and drug discovery and methods of use” (priority 2001, published 2003).

The subject of test [1] is E. coli cells transcribing antisense RNA to rplL and rplJ (AS-rplL/J). Description: microbe, parasite or virus in culture. Format: cell-based. The conditions noted are these: for Fold Increase: IC50 without IPTG vs IC50 with 400 μM IPTG; for Sensitivity (increased sensitivity observed in the presence of IPTG): statistically significant decrease in IC50 in the presence of inducer; for IC50: Escherichia coli. How it is done:
Antibiotics of various chemical classes and modes of action were purchased from Sigma Chemicals (St. Louis, Mo.). Stock solutions were prepared by dissolving each antibiotic in an appropriate aqueous solution based on information provided by the manufacturer. The final working solution of each antibiotic contained no more than 0.2% (w/v) of any organic solvent. To determine their potency against a bacterial strain engineered for transcription of an antisense comprising a nucleotide sequence complementary to a proliferation-required 50S ribosomal protein, each antibiotic was serially diluted two-or three-fold in growth medium supplemented with the appropriate antibiotic for maintenance of the antisense construct. At least ten dilutions were prepared for each antibiotic. 25 μL aliquots of each dilution were transferred to discrete wells of a 384-well microplate (the assay plate) using a multi-channel pipette. Quadruplicate wells were used for each dilution of an antibiotic under each treatment condition (plus and minus inducer). Each assay plate contained twenty wells for cell growth controls (growth medium replacing antibiotic), ten wells for each treatment (plus and minus inducer, in this example IPTG). Assay plates were usually divided into the two treatments: half the plate containing induced cells and an appropriate concentrations of inducer (in this example IPTG) to maintain the state of induction, the other half containing non-induced cells in the absence of IPTG.
Cells for the assay were prepared as follows. Bacterial cells containing a construct, from which transcription of antisense nucleic acid comprising a nucleotide sequence complementary to rplL and rplJ (AS-rplL/J), which encode proliferation-required 50S ribosomal subunit proteins, is inducible in the presence of IPTG, were grown into exponential growth (OD600 0.2 to 0.3) and then diluted 1:100 into fresh medium containing either 400 μM or 0 μM inducer (IPTG). These cultures were incubated at 37° C. for 2.5 hr. After a 2.5 hr incubation, induced and non-induced cells were respectively diluted into an assay medium at a final OD600 value of 0.0004. The medium contained an appropriate concentration of the antibiotic for the maintenance of the antisense construct. In addition, the medium used to dilute induced cells was supplemented with 800 μM IPTG so that addition to the assay plate would result in a final IPTG concentration of 400 μM. Induced and non-induced cell suspensions were dispensed (25 μl/well) into the appropriate wells of the assay plate as discussed previously. The plate was then loaded into a plate reader, incubated at constant temperature, and cell growth was monitored in each well by the measurement of light scattering at 595 nm. Growth was monitored every 5 minutes until the cell culture attained a stationary growth phase. For each concentration of antibiotic, a percentage inhibition of growth was calculated at the time point corresponding to mid-exponential growth for the associated control wells (no antibiotic, plus or minus IPTG). For each antibiotic and condition (plus or minus IPTG), a plot of percent inhibition versus log of antibiotic concentration was generated and the IC50 determined.

In test [2] the test system is E. coli transformed with IPTG-inducible antisense clones. Briefly: Cell-based assay of antibiotic sensitivity in E. coli transcribing non-stabilized antisense RNA. The text has this: The effectiveness of the above cell-based assays in which the level or activity of a gene product required for proliferation was reduced was validated using constructs transcribing a non-stabilized antisense RNA to the proliferation required E. coli genes rplL, rplJ and rplW encoding ribosomal proteins L7/L12, L10 and L23 respectively. These proteins are essential components of the protein synthesis apparatus of the cell and as such are required for proliferation. Constructs transcribing antisense RNA to several other genes (elaD, visC, yohH, and atpE/B), the products of which are not involved in protein synthesis were used for comparison.
First, pLex5BA (Krause et al., J. Mol. Biol. 274: 365 (1997), the disclosure of which is incorporated herein by reference in its entirety) vectors containing antisense constructs to either rplW or to elaD were introduced into separate E. coli cell populations. […]
The cell populations containing vectors producing AS-elaD or AS-rplW were exposed to a range of IPTG concentrations in liquid medium to obtain the growth inhibitory dose curve for each clone (FIG. 5). First, seed cultures were grown to a particular turbidity measured by the optical density (OD) of the growth solution. […] The cells were grown for up to 15 hours and the extent of growth was determined by measuring the optical density of the cultures at 600 nm. […]

For orientation: IC50 means the midpoint of a concentration-inhibition curve.

≈ marks a conversion by molar mass, not a printed value. Like-named read-outs stand apart in the source and are kept apart here. Positions of bridges follow the written chain, without caps; N, C: chain ends. Non-standard residues stand in square brackets, D forms with d. Residues, ends and D or L forms follow the SMILES beside them. *: point of attachment. Ileψ(thiazoline)Cys = CC[C@H](C)[C@H](N)C1=N[C@H](C(=O)*)CS1; dOrn = NCCC[C@@H](N)C(=O)O

As for `[H]/N=C(/N)N[C@H]1[C@H](O)[C@@H](O)[C@H](O[C@@H]2O[C@@H](C)[C@](O)(C=O)[C@H]2O[C@@H]2O[C@@H](CO)[C@H](O)[C@@H](O)[C@@H]2NC)[C@@H](N/C(N)=N\[H])[C@@H]1O` [Streptomycin], in test [1], the “Fold Increase” value is on record as 70 and the “Sensitivity (increased sensitivity observed in the presence of IPTG)” value is given as “Yes”.

Turning to `CN[C@H](CC(C)C)C(=O)N[C@H]1C(=O)N[C@@H](CC(N)=O)C(=O)N[C@H]2C(=O)N[C@H]3C(=O)N[C@H](C(=O)N[C@H](C(=O)O)c4cc(O)cc(O)c4-c4cc3ccc4O)[C@H](O)c3ccc(c(Cl)c3)Oc3cc2cc(c3O[C@@H]2O[C@H](CO)[C@@H](O)[C@H](O)[C@H]2O[C@H]2C[C@](C)(N)[C@H](O)[C@H](C)O2)Oc2ccc(cc2Cl)[C@H]1O` [Vancomycin], the IC50 in test [1] (read-out: IC50 (+IPTG)) worked out at 72.5 µg/mL (≈ 50.1 µM). The IC50 in test [1] (read-out: IC50 (−IPTG)) came out at 145 µg/mL (≈ 100 µM). In test [1], the “Fold Increase” value was found to be 2 and the “Sensitivity (increased sensitivity observed in the presence of IPTG)” value was “No”.

Take `NC[C@H]1O[C@H](O[C@H]2[C@H](O)[C@@H](O[C@H]3O[C@H](CO)[C@@H](O)[C@H](N)[C@H]3O)[C@H](N)C[C@@H]2N)[C@H](N)C[C@@H]1O` [Tobramycin]: in test [1], the “Fold Increase” value was determined as 51 and the “Sensitivity (increased sensitivity observed in the presence of IPTG)” value is given as “Yes”.

As for `CN(C)c1ccc(O)c2c1C[C@H]1C[C@H]3[C@H](N(C)C)C(O)=C(C(N)=O)C(=O)[C@@]3(O)C(O)=C1C2=O` [Minocycline], the “Fold Increase” value in test [1] is listed as 172.

In the case of `CO/N=C(\C(=O)N[C@@H]1C(=O)N2C(C(=O)O)=C(COC(C)=O)CS[C@H]12)c1csc(N)n1` [Cefotaxime], in test [1], the “Fold Increase” value was found to be 1 and the “Sensitivity (increased sensitivity observed in the presence of IPTG)” value is “No”.

For `CCC[C@@H]1C[C@@H](C(=O)N[C@@H]([C@H]2O[C@H](SC)[C@H](O)[C@@H](O)[C@H]2O)[C@@H](C)O)N(C)C1` [Lincomycin], in test [1], the “Fold Increase” value amounted to 145 and the “Sensitivity (increased sensitivity observed in the presence of IPTG)” value is reported as “Yes”.

With `C[C@H]1c2cccc(O)c2C(=O)C2=C(O)[C@]3(O)C(=O)C(C(N)=O)=C(O)[C@@H](N(C)C)[C@@H]3[C@@H](O)[C@@H]21` [Doxycycline], the “Fold Increase” value in test [1] turned out to be 15.

Turning to `CO[C@@]1(NC(=O)Cc2cccs2)C(=O)N2C(C(=O)O)=C(COC(N)=O)CS[C@@H]21` [Cefoxitin], in test [1], the “Fold Increase” value was 1 and the “Sensitivity (increased sensitivity observed in the presence of IPTG)” value was “No”.

Take `CCn1cc(C(=O)O)c(=O)c2ccc(C)nc21` [Nalidixic acid]: the “sensitivity of clone to the antibiotic” value in test [2] (clone transcribing antisense to rplL and rplJ (AS-rplL/J)) is “does not show increased sensitivity”. For the same compound, in test [1], the “Fold Increase” value worked out at 1 and the “Sensitivity (increased sensitivity observed in the presence of IPTG)” value is reported as “No”.

In the case of `O=C(N[C@H](CO)[C@H](O)c1ccc([N+](=O)[O-])cc1)C(Cl)Cl` [Chloramphenicol], in test [1], the “Fold Increase” value is on record as 307 and the “Sensitivity (increased sensitivity observed in the presence of IPTG)” value is recorded as “Yes”.

With `CN(C)[C@@H]1C(O)=C(C(N)=O)C(=O)[C@@]2(O)C(O)=C3C(=O)c4c(O)cccc4[C@@](C)(O)[C@H]3C[C@@H]12` [Tetracycline], the “Fold Increase” value in test [1] stood at 109.

Regarding `CC[C@H]1OC(=O)[C@H](C)[C@@H](O[C@H]2C[C@@](C)(OC)[C@@H](O)[C@H](C)O2)[C@H](C)[C@@H](O[C@@H]2O[C@H](C)C[C@H](N(C)C)[C@H]2O)[C@](C)(O)C[C@@H](C)C(=O)[C@H](C)[C@@H](O)[C@]1(C)O` [Erythromycin], in test [2] (clones transcribing antisense to protein synthesis genes (L7/L12 & L10, L7/L12, L22, L18, rRNA, Elongation Factor G), initial experiments), the “sensitivity of clones to the antibiotic” value is listed as “increased sensitivity”. In addition, in test [1], the “Fold Increase” value was 40 and the “Sensitivity (increased sensitivity observed in the presence of IPTG)” value is reported as “Yes”.

`CN[C@@H]1[C@H](O)[C@H](NC)[C@H]2O[C@@]3(O)C(=O)C[C@@H](C)O[C@H]3O[C@@H]2[C@H]1O` [Spectinomycin]: the IC50 in test [1] (read-out: IC50 (+IPTG)) was less than 0.156 µg/mL. Moreover, in test [1], the “Sensitivity (increased sensitivity observed in the presence of IPTG)” value is listed as “Yes”.

As for Gentamicin, in test [1], the “Fold Increase” value was 141 and the “Sensitivity (increased sensitivity observed in the presence of IPTG)” value is on record as “Yes”. Further, the “IC50 (+IPTG)” value in test [1] (induced AS-rplL/J cells, 400 μM IPTG) was determined as 0.01919 µg/mL. Also, in test [1] (non-induced AS-rplL/J cells, 0 μM IPTG), the “IC50 (−IPTG)” value stood at 2.715 µg/mL.

On to `CC[C@H](C)[C@H](N)C1=N[C@H](C(=O)N[C@@H](CC(C)C)C(=O)N[C@H](CCC(=O)O)C(=O)N[C@H](C(=O)N[C@H]2CCCCNC(=O)[C@H](CC(N)=O)NC(=O)[C@@H](CC(=O)O)NC(=O)[C@H](Cc3cnc[nH]3)NC(=O)[C@@H](Cc3ccccc3)NC(=O)[C@H]([C@@H](C)CC)NC(=O)[C@@H](CCCN)NC2=O)[C@@H](C)CC)CS1` [Bacitracin] ({Ileψ(thiazoline)Cys}-L[dE]IK[dOrn]I[dF]H[dD]N; lactam 4-C), for which the results for the IC50 in test [1] (read-out: IC50 (+IPTG)) and in test [1] (read-out: IC50 (−IPTG)) were 4.68 µg/mL (≈ 3.29 µM) and 4.08 µg/mL (≈ 2.87 µM), respectively. In addition, the “Fold Increase” value in test [1] was 1. For the same compound, the “Sensitivity (increased sensitivity observed in the presence of IPTG)” value in test [1] is reported as “No”.

Take `CC(=O)O[C@H]1C[C@@]2(C)[C@@H](C[C@@H](O)[C@H]3[C@@]4(C)CC[C@@H](O)[C@@H](C)[C@@H]4CC[C@@]32C)/C1=C(\CCC=C(C)C)C(=O)O` [Fusidic acid]: in test [1], the “Fold Increase” value is listed as 94 and the “Sensitivity (increased sensitivity observed in the presence of IPTG)” value was “Yes”.

In the case of `CC1COc2c(N3CCN(C)CC3)c(F)cc3c(=O)c(C(=O)O)cn1c23` (centres unmarked) [Ofloxacin], in test [1], the “Fold Increase” value was found to be 1.
